The test system of assay [1] is Serratia marcescens expressing IMP-1 (CL5741). Put plainly: Antibiotic potentiation activity: synergistic concentration (MITC95) with imipenem, growth by OD600. The assay is classed as cell-based. Particulars: S. marcescens CL5741 (IMP-1), 95% inhibition of growth. The procedure, abridged:
(§1)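 Colonies from overnight agar plates (35 °C) were suspended in saline and diluted 1:100 into 1.1× CAMHB. Inhibitor (final 200 μM to 0.195 μM) was combined with imipenem at 1 or 4 μg/ml, incubated 22–24 h at 35 °C, and absorbance read; MITC95 is the lowest inhibitor concentration giving 95% growth inhibition.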

Assay [2] deals with Klebsiella pneumoniae expressing VIM-1 (IHMA599644). The assay is described as above. Type of assay: cell-based. Particulars: K. pneumoniae IHMA599644 (VIM-1), 95% inhibition of growth. The method in brief:
as §1

The subject of assay [3] is Escherichia coli expressing NDM-1 (CLB30016). The assay is described as above. Particulars: E. coli CLB30016 (NDM-1), 95% inhibition of growth. Type of assay: cell-based. The procedure, abridged: as §1
The next assay has as its target IMP-1 (Serratia marcescens, UniProt P52699). Put plainly: Enzyme activity: determination of IC50, fluorescence assay with CCF2-FA substrate. The assay is classed as biochemical. Particulars: IMP-1 enzyme 2 pM, CCF2-FA 1.25 μM, 2 hours at 25° C.; read-out: IMP1 IC50. The method in brief:
(§2)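 Final enzyme levels differed by target: 1 pM NDM-1, 2 pM IMP-1, 30 pM VIM-1. Each was incubated 2 hours at 25° C with test compound and 1.25 μM CCF2-FA, and 460 nm fluorescence (405 nm excitation) was fitted by 4-parameter curve to obtain IC50.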

A further assay deals with NDM-1 (Klebsiella pneumoniae, UniProt C7C422). The assay is described as above. Type of assay: biochemical. Particulars: NDM-1 enzyme 1 pM, CCF2-FA 1.25 μM, 2 hours at 25° C.; read-out: NDM1 IC50. The method in brief:
as §2

A further assay concerns the target VIM-1 (Pseudomonas aeruginosa, UniProt A0A0F7KYQ8). Described as above. The assay is classed as biochemical. Particulars: VIM-1 enzyme 30 pM, CCF2-FA 1.25 μM, 2 hours at 25° C.; read-out: VIM1 IC50. The procedure, abridged: as §2

Some results are limits rather than exact numbers.

NDM-1, sequence (C7C422 29-270, looked up, species assumed): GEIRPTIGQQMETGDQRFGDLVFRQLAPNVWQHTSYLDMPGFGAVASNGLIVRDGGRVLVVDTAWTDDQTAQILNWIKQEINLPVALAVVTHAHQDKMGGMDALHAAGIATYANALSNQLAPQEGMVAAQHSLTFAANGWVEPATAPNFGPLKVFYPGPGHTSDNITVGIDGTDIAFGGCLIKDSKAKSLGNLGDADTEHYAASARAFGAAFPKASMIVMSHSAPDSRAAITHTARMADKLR
IMP-1, sequence (P52699 19-246, looked up, species assumed): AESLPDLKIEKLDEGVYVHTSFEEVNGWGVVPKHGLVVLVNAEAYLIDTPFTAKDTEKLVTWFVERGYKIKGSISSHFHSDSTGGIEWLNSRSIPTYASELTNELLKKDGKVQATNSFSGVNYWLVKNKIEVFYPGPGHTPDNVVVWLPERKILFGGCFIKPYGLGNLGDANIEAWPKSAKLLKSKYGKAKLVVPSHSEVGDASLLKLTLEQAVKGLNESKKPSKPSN

Regarding `CC(C)C[C@H](C(=O)O)[C@H](Cc1ccc(N2CC3(CNC(=O)C3)C2)nc1)c1nnn[nH]1` [Example 328, (2S)-4-methyl-2-[(1S)-2-[6-(7-oxo-2,6-diazaspiro[3.4]oct-2-yl)pyridin-3-yl]-1-(1H-tetrazol-5-yl)ethyl]pentanoic acid], the “IMP1 SM5741 MITC95” value in assay [1] is 50 µM. Moreover, in assay [2], the “VIM1 KP599644 MITC95” value amounted to 50 µM. Besides, in assay [3], the “NDM1 EC30016 MITC95” value turned out to be 9.4 µM. Also, the values for the IC50 at IMP-1, at NDM-1 and on VIM-1 were 1.1 µM, 0.26 µM and 0.012 µM, respectively.
`CC(C)C[C@H](C(=O)O)[C@H](Cc1ccc(N2CC(N3CCOCC3)C2)nc1)c1nnn[nH]1` [Example 329, (2S)-4-methyl-2-[(1S)-2-[6-(3-morpholin-4-ylazetidin-1-yl)pyridin-3-yl]-1-(1H-tetrazol-5-yl)ethyl]pentanoic acid]: the “IMP1 SM5741 MITC95” value in assay [1] stood at 25 µM. Besides, the “VIM1 KP599644 MITC95” value in assay [2] is more than 200 µM. The “NDM1 EC30016 MITC95” value in assay [3] is 12.5 µM. The half-maximal inhibitory concentration (IC50) on IMP-1 worked out at 0.45 µM; on NDM-1, 0.17 µM; on VIM-1, 0.049 µM.
For the compound `CC(C)C[C@H](C(=O)O)[C@H](Cc1ccc(N2CC(CO)(CO)C2)nc1)c1nnn[nH]1` [Example 330, (2S)-2-[(1S)-2-{6-[3,3-bis(hydroxymethyl)azetidin-1-yl]pyridin-3-yl}-1-(1H-tetrazol-5-yl)ethyl]-4-methylpentanoic acid], the “IMP1 SM5741 MITC95” value in assay [1] stood at 25 µM. For the same compound, the “VIM1 KP599644 MITC95” value in assay [2] worked out at 100 µM. The “NDM1 EC30016 MITC95” value in assay [3] stood at 16 µM. The concentration for half-maximal inhibition (IC50) is 0.4 µM on IMP-1, 0.1 µM on NDM-1 and 0.022 µM at VIM-1.
For `CC(C)C[C@H](C(=O)O)[C@H](Cc1ccc(N2CC(C(C)(C)O)C2)nc1)c1nnn[nH]1` [Example 331, (2S)-2-[(1S)-2-{6-[3-(1-hydroxy-1-methylethyl)azetidin-1-yl]pyridin-3-yl}-1-(1H-tetrazol-5-yl)ethyl]-4-methylpentanoic acid], the “IMP1 SM5741 MITC95” value in assay [1] came to 18.8 µM. Besides, the “VIM1 KP599644 MITC95” value in assay [2] was determined as 100 µM. Further, the “NDM1 EC30016 MITC95” value in assay [3] worked out at 9.4 µM. Besides, the values for the 50% inhibitory concentration (IC50) at IMP-1, on NDM-1 and on VIM-1 were 0.34 µM, 0.13 µM and 0.049 µM, respectively.
With `CC(C)C[C@H](C(=O)O)[C@H](Cc1ccc(N2CC(N3CCN(C)CC3)C2)nc1)c1nnn[nH]1` [Example 332, (2S)-4-methyl-2-[(1S)-2-{6-[3-(4-methylpiperazin-1-yl)azetidin-1-yl]pyridin-3-yl}-1-(1H-tetrazol-5-yl)ethyl]pentanoic acid], the “IMP1 SM5741 MITC95” value in assay [1] was determined as 12.5 µM. In assay [2], the “VIM1 KP599644 MITC95” value stood at 50 µM. Besides, in assay [3], the “NDM1 EC30016 MITC95” value amounted to 4.7 µM. The IC50 at IMP-1 amounted to 0.54 µM; on NDM-1, 0.16 µM; at VIM-1, 0.024 µM.
`CC(C)C[C@H](C(=O)O)[C@H](Cc1ccc(N2CC(CCO)C2)nc1)c1nnn[nH]1` [Example 333, (2S)-2-[(1S)-2-{6-[3-(2-hydroxyethyl)azetidin-1-yl]pyridin-3-yl}-1-(1H-tetrazol-5-yl)ethyl]-4-methylpentanoic acid]: the “IMP1 SM5741 MITC95” value in assay [1] came out at 12.5 µM. Also, the “VIM1 KP599644 MITC95” value in assay [2] came to 38 µM. In assay [3], the “NDM1 EC30016 MITC95” value was found to be 1.6 µM. The IC50 at IMP-1 came to 0.17 µM; at NDM-1, 0.058 µM; on VIM-1 it was 0.0082 µM.
`CC(C)C[C@H](C(=O)O)[C@H](Cc1ccc(N2CC(S(C)(=O)=O)C2)nc1)c1nnn[nH]1` [Example 335, (2S)-4-methyl-2-[(1S)-2-{6-[3-(methylsulfonyl)azetidin-1-yl]pyridin-3-yl}-1-(1H-tetrazol-5-yl)ethyl]pentanoic acid]: the “IMP1 SM5741 MITC95” value in assay [1] stood at 3.1 µM. Further, in assay [2], the “VIM1 KP599644 MITC95” value amounted to 75 µM. Further, in assay [3], the “NDM1 EC30016 MITC95” value came out at 6.2 µM. The IC50 was 0.056 µM at IMP-1, 0.059 µM on NDM-1 and 0.0049 µM at VIM-1.
As to `CC(C)C[C@H](C(=O)O)[C@H](Cc1ccc(N2CC3(CCNC3)C2)nc1)c1nnn[nH]1` [Example 336, (2S)-2-[(1S)-2-[6-(2,6-diazaspiro[3.4]oct-2-yl)pyridin-3-yl]-1-(1H-tetrazol-5-yl)ethyl]-4-methylpentanoic acid], the “IMP1 SM5741 MITC95” value in assay [1] amounted to 25 µM. For the same compound, the “VIM1 KP599644 MITC95” value in assay [2] amounted to 25 µM. The “NDM1 EC30016 MITC95” value in assay [3] worked out at 3.1 µM. Moreover, the figures for the half-maximal inhibitory concentration (IC50) at IMP-1, at NDM-1 and at VIM-1 were 1.2 µM, 0.18 µM and 0.02 µM, respectively.
Take `CC(C)C[C@H](C(=O)O)[C@H](Cc1ccc(N2CC3(CN(C)C(=O)O3)C2)nc1)c1nnn[nH]1` [Example 337, (2S)-4-methyl-2-[(1S)-2-[6-(7-methyl-6-oxo-5-oxa-2,7-diazaspiro[3.4]oct-2-yl)pyridin-3-yl]-1-(1H-tetrazol-5-yl)ethyl]pentanoic acid]: the “IMP1 SM5741 MITC95” value in assay [1] came out at 18.8 µM. Further, the “VIM1 KP599644 MITC95” value in assay [2] amounted to 75 µM. Moreover, the “NDM1 EC30016 MITC95” value in assay [3] came out at 9.4 µM. The values for the IC50 on IMP-1, on NDM-1 and at VIM-1 were 0.3 µM, 0.062 µM and 0.01 µM, respectively.
Turning to `CC(C)C[C@H](C(=O)O)[C@H](Cc1ccc(N2CC(O)(C(F)(F)F)C2)nc1)c1nnn[nH]1` [Example 338, (2S)-2-[(1S)-2-{6-[3-hydroxy-3-(trifluoromethyl)azetidin-1-yl]pyridin-3-yl}-1-(1H-tetrazol-5-yl)ethyl]-4-methylpentanoic acid], the “IMP1 SM5741 MITC95” value in assay [1] was 9.4 µM. For the same compound, the “VIM1 KP599644 MITC95” value in assay [2] worked out at 150 µM. The “NDM1 EC30016 MITC95” value in assay [3] was found to be 31 µM. The half-maximal inhibitory concentration (IC50) at IMP-1 is 0.2 µM; at NDM-1 it was 0.11 µM; at VIM-1, 0.038 µM.
`CCC[C@H](C(=O)O)[C@H](Cc1cccc(-c2cccnc2)c1)c1nn[nH]n1` [Example 339, (2S)-2-[(1S)-2-(3-pyridin-3-ylphenyl)-1-(2H-tetrazol-5-yl)ethyl]pentanoic acid]: in assay [1], the “IMP1 SM5741 MITC95” value is 6.2 µM. In addition, the “VIM1 KP599644 MITC95” value in assay [2] turned out to be 38 µM. Besides, the “NDM1 EC30016 MITC95” value in assay [3] is 18.8 µM. Further, the 50% inhibitory concentration (IC50) on IMP-1 stood at 0.16 µM; at NDM-1 it was 0.0036 µM; at VIM-1 it was 0.0014 µM.
`CCC[C@H](C(=O)O)[C@H](Cc1cccc(-c2ccnc(N3CCNCC3)c2)c1)c1nn[nH]n1` [Example 340, (2S)-2-[(1S)-2-[3-(2-piperazin-1-ylpyridin-4-yl)phenyl]-1-(2H-tetrazol-5-yl)ethyl]pentanoic acid]: the “IMP1 SM5741 MITC95” value in assay [1] is 4.7 µM. In assay [2], the “VIM1 KP599644 MITC95” value turned out to be 50 µM. Further, the “NDM1 EC30016 MITC95” value in assay [3] was 38 µM. The values for the IC50 at IMP-1, at NDM-1 and on VIM-1 were 0.18 µM, 0.046 µM and 0.0035 µM, respectively.
`CCC[C@H](C(=O)O)[C@H](Cc1cccc(-c2cccc(C(N)=O)c2)c1)c1nn[nH]n1` [Example 341, (2S)-2-[(1S)-2-(3′-carbamoylbiphenyl-3-yl)-1-(2H-tetrazol-5-yl)ethyl]pentanoic acid]: in assay [1], the “IMP1 SM5741 MITC95” value worked out at 2.3 µM. Also, the “VIM1 KP599644 MITC95” value in assay [2] stood at 18.8 µM. For the same compound, the “NDM1 EC30016 MITC95” value in assay [3] turned out to be 18.8 µM. The IC50 on IMP-1 came to 0.11 µM; at NDM-1, 0.0066 µM; on VIM-1 it was 0.00099 µM.
On to `CCC[C@H](C(=O)O)[C@H](Cc1cccc(-c2ccc(N)nc2)c1)c1nn[nH]n1` [Example 342, (2S)-2-[(1S)-2-[3-(6-aminopyridin-3-yl)phenyl]-1-(2H-tetrazol-5-yl)ethyl]pentanoic acid], for which the “IMP1 SM5741 MITC95” value in assay [1] came to 3.1 µM. In assay [2], the “VIM1 KP599644 MITC95” value stood at 12.5 µM. The “NDM1 EC30016 MITC95” value in assay [3] turned out to be 6.2 µM. Further, the IC50 was found to be 0.17 µM at IMP-1, 0.0047 µM on NDM-1 and 0.0011 µM at VIM-1.
With `CCC[C@H](C(=O)O)[C@H](Cc1cccc(-c2ccc(NS(C)(=O)=O)cc2)c1)c1nn[nH]n1` [Example 343, (2S)-2-[(1S)-2-{4′-[(methylsulfonyl)amino]biphenyl-3-yl}-1-(2H-tetrazol-5-yl)ethyl]pentanoic acid], the “IMP1 SM5741 MITC95” value in assay [1] was found to be 0.39 µM. Besides, the “VIM1 KP599644 MITC95” value in assay [2] stood at 18.8 µM. Besides, the “NDM1 EC30016 MITC95” value in assay [3] came out at 25 µM. The concentration for half-maximal inhibition (IC50) at IMP-1 was determined as 0.022 µM; at NDM-1, 0.011 µM; at VIM-1, 0.0024 µM.
`CCC[C@H](C(=O)O)[C@H](Cc1cccc(-c2ccc(C(=O)NC)cc2)c1)c1nn[nH]n1` [Example 344, (2S)-2-[(1S)-2-[4′-(methylcarbamoyl)biphenyl-3-yl]-1-(2H-tetrazol-5-yl)ethyl]pentanoic acid]: the “IMP1 SM5741 MITC95” value in assay [1] turned out to be 0.59 µM. Further, the “VIM1 KP599644 MITC95” value in assay [2] stood at 50 µM. Besides, the “NDM1 EC30016 MITC95” value in assay [3] came out at 38 µM. Besides, the figures for the IC50 at IMP-1, on NDM-1 and at VIM-1 were 0.028 µM, 0.014 µM and 0.0017 µM, respectively.

For orientation: IC50 means the concentration at which inhibition is half-maximal.

The values are drawn from patent US9839642B2, “Beta-tetrazolyl-propionic acids as metallo-beta-lactamase inhibitors” (priority 2014, dated 2017).
